Laboratory results taken from ChEMBL document CHEMBL1201862, “PubChem BioAssay data set” (2004).
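Five concentrations, 48 hours, 96-well plates. GI50 is the concentration that inhibits growth by half.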 Active and inactive are the calls of the source. Cut-off read from the data, not from the text of the source: active = GI50 up to about 1.1 µM and inactive = higher.

How the values were obtained:
Assay in all cases: NCI-60 cell line screen, 48 h
[1] = tested on: SK-MEL-2
[2] = tested on: OVCAR-4
[3] = tested on: SK-MEL-28
[4] = tested on: EKVX
[5] = tested on: MDA-N
[6] = tested on: OVCAR-5
[7] = tested on: RXF 393
[8] = tested on: COLO 205
[9] = tested on: SW-620
[10] = tested on: K562
[11] = tested on: NCI-H23
[12] = tested on: HCC 2998
[13] = tested on: HCT-116
[14] = tested on: BT-549
[15] = tested on: UACC-257
[16] = tested on: MOLT-4
[17] = tested on: OVCAR-3
[18] = tested on: RPMI-8226
[19] = tested on: SK-OV-3
[20] = tested on: Hs-578T

Measured: GI50

CC(NNC(=O)c1ccc[n+]([BH2-]C#N)c1)c1ccccc1 (stereo not drawn)
inactive: [1] > 100 µM | [2] > 100 µM | [3] > 100 µM | [4] > 100 µM | [5] > 100 µM | [6] > 100 µM | [7] > 100 µM | [8] > 100 µM | [9] > 100 µM | [10] > 100 µM | [11] > 100 µM | [12] > 100 µM | [13] > 100 µM | [14] > 100 µM | [15] > 100 µM | [16] 38.3 µM | [17] > 100 µM

CCN(CC)CCCC(C)NC(=O)c1cc(-c2nccn2C)nc2ccc(C)cc12 (stereo not drawn)
inactive: [1] > 100 µM | [2] 67.5 µM | [3] > 100 µM | [4] > 100 µM | [5] > 100 µM | [18] > 100 µM | [6] > 100 µM | [7] > 100 µM | [8] > 100 µM | [9] > 100 µM | [11] > 100 µM | [12] > 100 µM | [13] > 100 µM | [14] > 100 µM | [15] > 100 µM | [16] > 10 µM

O=c1[nH]c2cc3cccnc3c(Cl)c2nc1CBr
inactive: [2] 19.3 µM | [4] 16.1 µM | [19] 26 µM | [5] 15.6 µM | [18] 6.05 µM | [6] 20.3 µM | [20] 13.1 µM | [7] 17.7 µM | [8] 13.8 µM | [9] 11.4 µM | [10] 12.1 µM | [11] 15 µM | [13] 11.7 µM | [14] 26.5 µM | [15] 18.7 µM | [16] 8.97 µM | [17] 14.8 µM

Cc1c2cnccc2nc2[nH]c3ccncc3c12
inactive: [1] 11.4 µM | [2] 11.7 µM | [3] 32.4 µM | [4] 16 µM | [19] 21.5 µM | [5] 10.6 µM | [18] 2.24 µM | [6] 5.62 µM | [20] 16.6 µM | [8] 8.49 µM | [9] 3.93 µM | [10] 10.8 µM | [11] 1.44 µM | [14] 6.92 µM | [15] 20.1 µM | [16] 6.31 µM | [17] 10.4 µM

CC(CO)(CO)N1C(=O)C2C3c4ccccc4C(c4ccccc43)C2C1=O (stereo not drawn)
inactive: [1] > 100 µM | [3] > 100 µM | [19] > 100 µM | [5] > 100 µM | [6] > 100 µM | [20] > 100 µM | [8] > 100 µM | [9] > 100 µM | [10] > 100 µM | [11] > 100 µM | [12] > 100 µM | [13] > 100 µM | [14] 80.9 µM | [15] > 100 µM | [16] > 100 µM | [17] > 100 µM

O=C1Cc2c([nH]c3ccc(C(=O)O)cc23)-c2ccccc2N1
inactive: [1] > 100 µM | [2] > 100 µM | [3] > 100 µM | [19] > 100 µM | [5] > 100 µM | [18] > 100 µM | [6] 6.79 µM | [20] > 100 µM | [8] > 100 µM | [9] > 100 µM | [10] > 100 µM | [11] > 100 µM | [12] > 100 µM | [13] > 100 µM | [14] > 100 µM | [15] > 100 µM | [16] > 100 µM | [17] > 100 µM

COC(=O)C1=CN(C2CCCCC2)C2(c3ccccc3)c3ccccc3C(=O)OC(=O)C12 (stereo not drawn)
inactive: [1] > 100 µM | [2] > 100 µM | [3] > 100 µM | [4] > 100 µM | [19] > 100 µM | [5] 58.5 µM | [6] > 100 µM | [7] 23 µM | [8] 72.8 µM | [9] > 100 µM | [10] 20.1 µM | [11] > 100 µM | [12] 27 µM | [13] 64.9 µM | [14] > 100 µM | [15] 49.2 µM | [16] 10.6 µM | [17] > 100 µM

C[C@]12CCC(=O)C=C1CC[C@@H]1C2CC[C@]2(C)c3nn(-c4ccc(F)cc4)nc3CC12 (stereo partly drawn)
inactive: [2] 49.3 µM | [3] > 100 µM | [4] > 100 µM | [19] > 100 µM | [5] > 100 µM | [6] > 100 µM | [20] 64.6 µM | [7] 67.3 µM | [8] > 100 µM | [9] > 100 µM | [10] > 100 µM | [11] > 100 µM | [12] > 100 µM | [13] > 100 µM | [14] > 100 µM | [15] > 100 µM | [16] > 100 µM | [17] > 100 µM

Clc1cc(-c2ccccc2)nc2ccccc12
inactive: [1] 19.1 µM | [2] 20.7 µM | [3] 57.5 µM | [4] 31.9 µM | [19] > 100 µM | [5] 26 µM | [18] 23.7 µM | [6] > 100 µM | [20] 30.1 µM | [7] 31.7 µM | [8] 19.5 µM | [9] 43.6 µM | [10] 37.8 µM | [11] 51.6 µM | [13] 32.5 µM | [14] 18.8 µM | [15] 34.8 µM | [16] 22.1 µM | [17] 49.9 µM

CC(CCCC1SCC2NC(=O)NC21)C(=O)O (stereo not drawn)
inactive: [1] > 100 µM | [2] > 100 µM | [3] > 100 µM | [4] > 100 µM | [19] > 100 µM | [5] > 100 µM | [18] > 100 µM | [6] > 100 µM | [20] > 100 µM | [7] > 100 µM | [8] > 100 µM | [9] > 100 µM | [10] > 100 µM | [11] > 100 µM | [13] > 100 µM | [14] > 100 µM | [16] > 100 µM | [17] > 100 µM

Cc1ccccc1NC(=O)C(=O)Cc1cnc2ccccc2n1
inactive: [1] > 100 µM | [2] > 100 µM | [3] > 100 µM | [4] > 100 µM | [19] > 100 µM | [5] > 100 µM | [18] > 100 µM | [6] > 100 µM | [20] > 100 µM | [8] > 100 µM | [9] > 100 µM | [10] > 100 µM | [11] > 100 µM | [12] > 100 µM | [13] > 100 µM | [14] > 100 µM | [15] > 100 µM | [16] > 100 µM | [17] > 100 µM
